In general, IC50 refers to the point on the concentration scale where inhibition reaches its midpoint.

Here are results for 31 compounds from patent US11802111B2, “Cyclobutyl amide monoacylglycerol lipase modulators” (Janssen Pharmaceutica NV, priority 2020, dated 2023).

Sequence of human MGL from HeLa cells (Q99685 whole entry): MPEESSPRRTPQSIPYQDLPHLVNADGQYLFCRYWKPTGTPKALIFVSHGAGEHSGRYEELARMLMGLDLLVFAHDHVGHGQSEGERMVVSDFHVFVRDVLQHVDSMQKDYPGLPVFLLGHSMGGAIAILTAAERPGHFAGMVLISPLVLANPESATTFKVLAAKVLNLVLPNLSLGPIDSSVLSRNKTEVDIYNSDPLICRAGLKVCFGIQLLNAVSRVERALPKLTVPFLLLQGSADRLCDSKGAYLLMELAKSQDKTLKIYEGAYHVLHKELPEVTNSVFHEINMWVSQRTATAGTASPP

The target of the assay is human MGL from HeLa cells (Homo sapiens (Human), UniProt Q99685). Briefly: MGL in vitro activity assay ([glycerol-1,3-3H]-oleoyl glycerol hydrolysis, activated carbon filtration). Type of assay: biochemical. The note with it: 300 nM [Glycerol-1,3-3H]-oleoyl glycerol, one hour. The gist of the method:
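Activity measured as tritium in the flow-through after activated carbon filtration of a 1 h reaction containing 300 nM 3H-oleoyl glycerol, compound and HeLa-derived human MGL. Compounds screened at 10 μM; IC50 series start at an empirically chosen highest concentration.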
In turn, `Cc1cc(C(F)(F)F)c(C)nc1OC1CCC2(CC1)CN(C(=O)[C@H]1C[C@@](C)(O)C1)C2` [Example 466, (7-((3,6-Dimethyl-5-(trifluoromethyl)pyridin-2-yl)oxy)-2-azaspiro[3.5]nonan-2-yl)((1s,3s)-3-hydroxy-3-methylcyclobutyl)methanone] showed a half-maximal inhibitory concentration (IC50) of 0.1 nM.

On to `COc1cc(C2CCC3(CC2)CN(C(=O)[C@H]2C[C@@](C)(O)C2)C3)ccc1C(F)(F)F` [Example 113, ((1s,3s)-3-Hydroxy-3-methylcyclobutyl)(7-(3-methoxy-4-(trifluoromethyl)phenyl)-2-azaspiro[3.5]nonan-2-yl)methanone], for which the IC50 came out at 37 nM.

In the case of `Cc1ccc(CC2CC3(C2)CN(C(=O)[C@H]2C[C@@](C)(O)C2)C3)cc1F` [Example 229, (6-(3-Fluoro-4-methylbenzyl)-2-azaspiro[3.3]heptan-2-yl)((1s,3s)-3-hydroxy-3-methylcyclobutyl)methanone], the IC50 was determined as 12 nM.

`C[C@]1(O)C[C@@H](C(=O)N2CC3(CCC(c4cc(C5CC5)ccc4F)C3)C2)C1` (mixture of isomers) [Example 81, (rac)-(6-(5-Cyclopropyl-2-fluorophenyl)-2-azaspiro[3.4]octan-2-yl)((1s,3s)-3-hydroxy-3-methylcyclobutyl)methanone] registered an IC50 of 20 nM.

With `Cc1cccc(CC2CC3(C2)CN(C(=O)[C@H]2C[C@@](C)(O)C2)C3)c1` [Example 165, ((1s,3s)-3-Hydroxy-3-methylcyclobutyl)(6-(3-methylbenzyl)-2-azaspiro[3.3]heptan-2-yl)methanone], the IC50 turned out to be 21 nM.

Regarding `C[C@]1(O)C[C@@H](C(=O)N2CC3(CC(Cc4ccccc4C4CC4)C3)C2)C1` [Example 271, (6-(2-Cyclopropylbenzyl)-2-azaspiro[3.3]heptan-2-yl)((1s,3s)-3-hydroxy-3-methylcyclobutyl)methanone], the IC50 amounted to 3.6 nM.

`Cc1ccc(OC2CCC3(CC2)CN(C(=O)[C@H]2C[C@](O)(C(F)F)C2)C3)nc1C(F)(F)F` [Example 453, ((1s,3s)-3-(Difluoromethyl)-3-hydroxycyclobutyl)(7-((5-methyl-6-(trifluoromethyl)pyridin-2-yl)oxy)-2-azaspiro[3.5]nonan-2-yl)methanone]: 19 nM corresponded to half-maximal inhibition (IC50). Against the preceding compound, the IC50 is about 5.3-fold higher.

In turn, `CCc1ccc(OC2CCC3(CC2)CN(C(=O)[C@H]2C[C@@](C)(O)C2)C3)nc1OC` [Example 454, (7-((5-Ethyl-6-methoxypyridin-2-yl)oxy)-2-azaspiro[3.5]nonan-2-yl)((1s,3s)-3-hydroxy-3-methylcyclobutyl)methanone] had a 50% inhibitory concentration (IC50) of 2.2 nM. This IC50 is about 8.6-fold lower than that of the compound before.

Regarding `C[C@]1(O)C[C@@H](C(=O)N2CC3(CCC(Oc4ccc5c(n4)CCC5)CC3)C2)C1` [Example 468, (7-((6,7-Dihydro-5H-cyclopenta[b]pyridin-2-yl)oxy)-2-azaspiro[3.5]nonan-2-yl)((1s,3s)-3-hydroxy-3-methylcyclobutyl)methanone], half-maximal inhibition (IC50) was put at 29 nM.

`C[C@]1(O)C[C@@H](C(=O)N2CC3(CCC(Cc4cccc(C(F)(F)F)c4)C3)C2)C1` (mixture of isomers) [Example 176, (rac)-((1s,3s)-3-Hydroxy-3-methylcyclobutyl)(6-(3-(trifluoromethyl)benzyl)-2-azaspiro[3.4]octan-2-yl)methanone] registered an IC50 of 11 nM.

Compound `Cn1ccc2ccc(OC3CCC4(CC3)CN(C(=O)[C@H]3C[C@@](C)(O)C3)C4)nc21` [Example 469, ((1s,3s)-3-Hydroxy-3-methylcyclobutyl)(7-((1-methyl-1H-pyrrolo[2,3-b]pyridin-6-yl)oxy)-2-azaspiro[3.5]nonan-2-yl)methanone] showed an IC50 of 18 nM.

As to `C[C@]1(O)C[C@@H](C(=O)N2CC3(CCC(c4ccn(-c5ccccc5)n4)CC3)C2)C1` [Example 380, ((1s,3s)-3-Hydroxy-3-methylcyclobutyl)(7-(1-phenyl-1H-pyrazol-3-yl)-2-azaspiro[3.5]nonan-2-yl)methanone], the IC50 came out at 23 nM.

As to `C[C@@H](c1ccc2cnn(C)c2c1)C1CC2(C1)CN(C(=O)[C@H]1C[C@@](C)(O)C1)C2` (stereo in doubt) [Example 314, ((1s,3*S)-3-Hydroxy-3-methylcyclobutyl)(6-((*R)-1-(1-methyl-1H-indazol-6-yl)ethyl)-2-azaspiro[3.3]heptan-2-yl)methanone], half-maximal inhibition (IC50) required 130 nM.

For `Cc1ccc(CC2CC3(C2)CN(C(=O)[C@H]2C[C@@](C)(O)C2)C3)c(C(F)(F)F)c1` [Example 213, ((1s,3s)-3-Hydroxy-3-methylcyclobutyl)(6-(4-methyl-2-(trifluoromethyl)benzyl)-2-azaspiro[3.3]heptan-2-yl)methanone], 4.1 nM corresponded to half-maximal inhibition (IC50).

`Cc1ccc(OC2CCC3(CC2)CN(C(=O)[C@H]2C[C@@](C)(O)C2)C3)cc1` [Example 404, ((1s,3s)-3-Hydroxy-3-methylcyclobutyl)(7-(p-tolyloxy)-2-azaspiro[3.5]nonan-2-yl)methanone] returned an IC50 of 53 nM. Against the preceding compound, the IC50 is about 13-fold higher.

Compound `CC(C)c1cc(F)cc(C2CCC3(C2)CN(C(=O)[C@H]2C[C@@](C)(O)C2)C3)c1` (mixture of isomers) [Example 125, (rac)-(6-(3-Fluoro-5-isopropylphenyl)-2-azaspiro[3.4]octan-2-yl)((1s,3s)-3-hydroxy-3-methylcyclobutyl)methanone] displayed an IC50 of 8.3 nM.

The compound `C[C@]1(O)C[C@@H](C(=O)N2CC3(CCC(Cc4ccccc4)CC3)C2)C1` [Example 235, (7-Benzyl-2-azaspiro[3.5]nonan-2-yl)((1s,3s)-3-hydroxy-3-methylcyclobutyl)methanone] gave an IC50 of 40 nM.

In turn, `C[C@]1(O)C[C@@H](C(=O)N2CC3(CCC(Oc4ccc(C(F)(F)F)nc4)CC3)C2)C1` [Example 424, ((1s,3s)-3-Hydroxy-3-methylcyclobutyl)(7-((6-(trifluoromethyl)pyridin-3-yl)oxy)-2-azaspiro[3.5]nonan-2-yl)methanone] displayed an IC50 of 99 nM.

Compound `COc1nc(OC2CCC3(CC2)CN(C(=O)[C@H]2C[C@@](C)(O)C2)C3)ccc1Cl` [Example 461, (7-((5-Chloro-6-methoxypyridin-2-yl)oxy)-2-azaspiro[3.5]nonan-2-yl)((1s,3s)-3-hydroxy-3-methylcyclobutyl)methanone] displayed an IC50 of 6.1 nM. This IC50 is about 16-fold lower than that of the compound before.

In the case of `CC(C)c1ccc(C2CC3(C2)CN(C(=O)[C@H]2C[C@@](C)(O)C2)C3)cc1` [Example 4, ((1s,3s)-3-Hydroxy-3-methylcyclobutyl)(6-(4-isopropylphenyl)-2-azaspiro[3.3]heptan-2-yl)methanone], the IC50 stood at 128 nM.

`Cc1cc(C(F)(F)F)ccc1OC1CCC2(C1)CN(C(=O)[C@H]1C[C@@](C)(O)C1)C2` (mixture of isomers) [Example 255, (rac)-((1s,3s)-3-Hydroxy-3-methylcyclobutyl)(6-(2-methyl-4-(trifluoromethyl)phenoxy)-2-azaspiro[3.4]octan-2-yl)methanone] registered a concentration for half-maximal inhibition (IC50) of 15 nM.

`Cc1ccc(C2CCC3(CC2)CN(C(=O)[C@H]2C[C@@](C)(O)C2)C3)cc1C` [Example 134, (7-(3,4-Dimethylphenyl)-2-azaspiro[3.5]nonan-2-yl)((1s,3s)-3-hydroxy-3-methylcyclobutyl)methanone] had an IC50 of 12 nM.

`COc1cccc(C2CCC3(C2)CN(C(=O)[C@H]2C[C@@](C)(O)C2)C3)c1C` (mixture of isomers) [Example 13, (rac)-((1s,3s)-3-Hydroxy-3-methylcyclobutyl)(6-(3-methoxy-2-methylphenyl)-2-azaspiro[3.4]octan-2-yl)methanone] displayed an IC50 of 159 nM.

On to `Cc1c(C2CC3(C2)CN(C(=O)[C@H]2C[C@@](C)(O)C2)C3)cccc1C(F)(F)F` [Example 21, ((1s,3s)-3-Hydroxy-3-methylcyclobutyl)(6-(2-methyl-3-(trifluoromethyl)phenyl)-2-azaspiro[3.3]heptan-2-yl)methanone], for which half-maximal inhibition (IC50) was put at 112 nM.

In the case of `Cc1ccc([C@H]2CCC3(C2)CN(C(=O)[C@H]2C[C@@](C)(O)C2)C3)c(C)c1` (stereo in doubt) [Example 321, ((*S)-6-(2,4-Dimethylphenyl)-2-azaspiro[3.4]octan-2-yl)((1s,3*R)-3-hydroxy-3-methylcyclobutyl)methanone], it took 36 nM to reach half-maximal inhibition (IC50).

On to `Cc1cc([C@@H]2CCC3(C2)CN(C(=O)[C@H]2C[C@@](C)(O)C2)C3)ccc1OC(F)F` (stereo in doubt) [Example 73, ((*R)-6-(4-(Difluoromethoxy)-3-methylphenyl)-2-azaspiro[3.4]octan-2-yl)((1s,3*S)-3-hydroxy-3-methylcyclobutyl)methanone], for which the midpoint of inhibition, the IC50, lay at 8.1 nM.

As to `Cc1cc(C2CC3(C2)CN(C(=O)[C@H]2C[C@@](C)(O)C2)C3)ccc1C(F)(F)F` [Example 33, ((1s,3s)-3-Hydroxy-3-methylcyclobutyl)(6-(3-methyl-4-(trifluoromethyl)phenyl)-2-azaspiro[3.3]heptan-2-yl)methanone], the IC50 was determined as 246 nM.

As to `Cc1nc(CC2CC3(C2)CN(C(=O)[C@H]2C[C@@](C)(O)C2)C3)ccc1C(F)(F)F` [Example 278, ((1s,3s)-3-Hydroxy-3-methylcyclobutyl)(6-((6-methyl-5-(trifluoromethyl)pyridin-2-yl)methyl)-2-azaspiro[3.3]heptan-2-yl)methanone], the IC50 worked out at 16 nM.

With `Cc1c(CC2CC3(C2)CN(C(=O)[C@H]2C[C@@](C)(O)C2)C3)cccc1C1CC1` [Example 154, (6-(3-Cyclopropyl-2-methylbenzyl)-2-azaspiro[3.3]heptan-2-yl)((1s,3s)-3-hydroxy-3-methylcyclobutyl)methanone], the IC50 came out at 1.7 nM.

The compound `CC(C)(C)c1cccc([C@H]2CCC3(C2)CN(C(=O)[C@H]2C[C@@](C)(O)C2)C3)c1` (stereo in doubt) [Example 45, ((*S)-6-(3-(tert-Butyl)phenyl)-2-azaspiro[3.4]octan-2-yl)((1s,3*R)-3-hydroxy-3-methylcyclobutyl)methanone] came in with an IC50 of 11 nM.

`Cc1ccc(C2CC3(C2)CN(C(=O)[C@H]2C[C@@](C)(O)C2)C3)cc1C(F)(F)F` [Example 6, ((1s,3s)-3-Hydroxy-3-methylcyclobutyl)(6-(4-methyl-3-(trifluoromethyl)phenyl)-2-azaspiro[3.3]heptan-2-yl)methanone] showed an IC50 of 31 nM.
